According to patent US20080312164A1 (priority 2006, published 2008):
Like-named read-outs stand apart in the source and are kept apart here. Marks after values point to notes of the source that are not given here.

Assays:
[1] = test system: NCI/ADR RES cells; assay: Calcein AM cytotoxicity assay, NCI/ADR-RES; format: cell-based; conditions: Homo sapiens, 72 h
Source text: (§1) Five serial 1:2 dilutions were made with anhydrous DMSO at 100× the final concentration used in the assay.

[2] = test system: NCI-H460 cells; assay: Calcein AM cytotoxicity assay, NCI-H460; format: cell-based; conditions: Homo sapiens
Source text: as §1

[3] = test system: HCT-116 cells; assay: Cell Titer-Glo cytotoxicity assay, HCT-116; format: cell-based; conditions: Homo sapiens
Source text: as §1

[4] = test system: SF-268 cells; assay: Cell Titer-Glo cytotoxicity assay, SF-268; format: cell-based; conditions: Homo sapiens
Source text: as §1

[5] = test system: Hep3B cells; assay: Cell Titer-Glo cytotoxicity assay, Hep3B; format: cell-based; conditions: Homo sapiens, 72 h
Source text: as §1

[6] = test system: MCF7 cells; assay: Calcein AM cytotoxicity assay, MCF7; format: cell-based; conditions: Homo sapiens
Source text: as §1

[7] = test system: human cancer cell lines; assay: Cytotoxicity across the panel of human cancer cell lines (average, high-throughput assays); format: cell-based; conditions: for IC50: read-out: Cancerous Average IC50 / Average IC50 in Cancer Cell Lines
Source text: as §1

[8] = test system: NCI/ADR RES cells; assay: Cell Titer-Glo cytotoxicity assay, NCI/ADR-RES; format: cell-based, human; conditions: for IC50: Homo sapiens, NCI/ADR-RES, 72 h
Source text: as §1

[9] = test system: SK-OV-3 cells; assay: Calcein AM cytotoxicity assay, SK-OV-3; format: cell-based; conditions: Homo sapiens
Source text: as §1

[10] = test system: Hep3B cells; assay: Calcein AM cytotoxicity assay, Hep3B; format: cell-based; conditions: Homo sapiens, 72 h
Source text: as §1

[11] = test system: NmuMG mouse mammary normal epithelial cells; assay: Calcein AM cytotoxicity assay, NmuMG; format: cell-based; conditions: Epithelial cell, 72 h
Source text: as §1

[12] = test system: NmuMG mouse mammary normal epithelial cells; assay: Cell Titer-Glo cytotoxicity assay, NmuMG; format: cell-based; conditions: for IC50: Mus musculus, Epithelial cell, 72 h
Source text: as §1

[13] = test system: SK-OV-3 cells; assay: Cell Titer-Glo cytotoxicity assay, SK-OV-3; format: cell-based; conditions: Homo sapiens
Source text: as §1

[14] = test system: Du145 cells; assay: Cell Titer-Glo cytotoxicity assay, Du145; format: cell-based; conditions: Homo sapiens
Source text: as §1

[15] = test system: MCF7 cells; assay: Cell Titer-Glo cytotoxicity assay, MCF7; format: cell-based, human; conditions: Homo sapiens
Source text: as §1

[16] = test system: Du145 cells; assay: Calcein AM cytotoxicity assay, Du145; format: cell-based; conditions: Homo sapiens
Source text: as §1

[17] = test system: HT-29 cells; assay: MTT cytotoxicity assay, HT-29; format: cell-based; conditions: Homo sapiens
Source text: The IC50 value for each library member represents at least twelve replicates of dose-response experiments conducted over five concentrations. […] In this assay, live cells were distinguished by the intracellular enzymatic activity that converts the cell-permeable molecule MTT to strongly colored formazan crystals, which are retained within live cells and absorb light at 570 nm.
MTT Cytotoxicity Assay. HT-29 cell lines were maintained in RPMI medium 1640 supplemented with 10% (wt/vol) FBS and 1% penicillin-streptomycin (PS) (100 units/mL and 100 μg/mL). Cells were harvested by trypsinization using 0.25% trypsin and 0.1% EDTA and plated at a density of 2,000-5,000 cells per well of each 96-well microtiter plate. Cells were grown for 24 h at 37° C., with 5% CO2/95% air in a humidified incubator to allow cell attachment to occur before compound addition. Library members were stored at −20° C. under desiccating conditions before the assay. Library member stocks (1000×) were prepared in falcon tubes (BD Biosciences). Five dilutions were made with DMSO at 1000× the final concentration used in the assay. The 1000× stocks (3 μL) were diluted with complete culture medium (3 mL). Each plate contained twelve replicates of cells treated with 0.1% DMSO in complete cell culture medium that served as an individual negative control. Library member stocks (1×, 200 μL) were added to aspirated cells and replicated twelve times on each plate. Cells were incubated with the library members for 24 h before optical density reading. Test plates were removed from the incubator and washed once in sterile PBS to remove serum containing library members. Freshly-made 10×MTT solution in sterile PBS (5 mg/mL) was diluted 1:10 in serum-free culture medium and was sterilized using a 0.2 μm filter. Diluted MTT solution (1×, 50 μL) was added to each well and the plates were incubated in the dark for 2 h. Test plates were centrifuged at 1800×g for 5 min at 4° C. using a Beckman GPR centrifuge. MTT solution was removed by aspiration and 100 μL DMSO was added to each well to lyse cells and solubilize formazan crystals. Test plates were incubated in the dark at room temperature for 10 min. Plates were read for optical density at 570 nm.
IC50 Calculations. For each library member, at least three dose-response experiments were conducted on separate plates. […] To calculate IC50, percent inhibitions were plotted as a function of log[concentration] and then fit to a four-parameter logistic model that allowed for a variable Hill slope by using XLFIT 4.1 (ID Business Solutions, Emeryville, Calif.).

[18] = test system: HCT-116 cells; assay: Calcein AM cytotoxicity assay, HCT-116; format: cell-based; conditions: Homo sapiens
Source text: as §1

[19] = test system: NCI-H460 cells; assay: Cell Titer-Glo cytotoxicity assay, NCI-H460; format: cell-based, human
Source text: as §1

[20] = test system: SF-268 cells; assay: Calcein AM cytotoxicity assay, SF-268; format: cell-based; conditions: Homo sapiens
Source text: as §1

[21] = NCI-H460, Calcein AM, 72 h, read-out: IC50
[22] = HCT-116, Cell Titer-Glo, 72 h, read-out: IC50
[23] = SF-268, Cell Titer-Glo, 72 h, read-out: IC50
[24] = MCF7, Calcein AM, 72 h, read-out: IC50
[25] = average across eight human cancer cell lines, MTT (HT-29) values excluded
[26] = SK-OV-3, Calcein AM, 72 h, read-out: IC50
[27] = NmuMG, Calcein AM, read-out: IC50
[28] = NmuMG, Cell Titer-Glo, read-out: IC50
[29] = SK-OV-3, Cell Titer-Glo, 72 h, read-out: IC50
[30] = DU-145, Du145, Cell Titer-Glo, 72 h, read-out: IC50
[31] = MCF7, Cell Titer-Glo, 72 h, read-out: IC50
[32] = DU-145, Du145, Calcein AM, 72 h, read-out: IC50
[33] = HT-29, MTT, 24 h, read-out: IC50
[34] = HCT-116, Calcein AM, 72 h, read-out: IC50
[35] = Homo sapiens, NCI-H460, Cell Titer-Glo, 72 h, read-out: IC50
[36] = SF-268, Calcein AM, 72 h, read-out: IC50

C[S+]([O-])CCCCN=C=S (centres unmarked) [Compound 2, 1-isothiocyanato-4-(methylsulfinyl) butane, reference compound]
IC50 [1]: 8.89 µM
IC50 ([2]; NCI-H460, 72 h): 8.74 µM
IC50 ([3]; HCT-116, 72 h): 3.58 µM
IC50 ([4]; SF-268, 72 h): 6.16 µM
IC50 [5]: 4.48 µM
IC50 ([6]; MCF7, 72 h): 3.14 µM
selectivity for cancer cells over NmuMG cells [7]: 1.3 fold
IC50 ([7]; Homo sapiens): 5.26 µM
IC50 [8]: 8.98 µM
IC50 ([9]; SK-OV-3, 72 h): 7.6 µM
IC50 [10]: 4.13 µM
IC50 [11]: 6.86 µM
IC50 [12]: 6.59 µM
IC50 ([13]; SK-OV-3, 72 h): 4.67 µM
IC50 ([14]; DU-145, 72 h): 6.1 µM
IC50 ([15]; MCF7, 72 h): < 3.13 µM
IC50 ([16]; DU-145, 72 h): 5.25 µM
IC50 ([17]; HT-29, 24 h): 45.2 µM
IC50 ([18]; HCT-116, 72 h): 2.94 µM
IC50 ([19]; Homo sapiens, NCI-H460, 72 h): 5.94 µM
IC50 ([20]; SF-268, 72 h): 11 µM

S=C=NCc1ccc(-c2ccccc2)cc1 [Compound 35, 1-(isothiocyanatomethyl)-4-phenylbenzene]
IC50 ([1]; Calcein AM, read-out: IC50): 6.73 µM
IC50 [2, 21]: 10.5 µM
IC50 [3, 22]: 4.83 µM
IC50 [4, 23]: 4.4 µM
IC50 ([5]; Cell Titer-Glo, read-out: IC50): 4.51 µM
IC50 [6, 24]: 2.91 µM
further fold increase in potency from multiple phenyl rings ([7]; average IC50 compared with single-ring 23 and 38): ~2 fold
IC50 [7, 25]: 7.89 µM
IC50 ([8]; Cell Titer-Glo, read-out: IC50): 12.1 µM
IC50 [9, 26]: < 3.13 µM
IC50 ([10]; Calcein AM, read-out: IC50): 4.33 µM
IC50 [11, 27]: < 12.5 µM
IC50 [12, 28]: 65.7 µM
IC50 [13, 29]: 4.65 µM
IC50 [14, 30]: 11 µM
IC50 [15, 31]: 6.72 µM
IC50 [16, 32]: 5.49 µM
IC50 [17, 33]: > 50 µM
IC50 [18, 34]: 7.54 µM
IC50 [19, 35]: 15 µM
IC50 [20, 36]: 6.26 µM

S=C=NCc1ccccc1 [Compound 23, 1-(isothiocyanatomethyl)benzene]
IC50 ([1]; Calcein AM, read-out: IC50): 15.5 µM
IC50 [2, 21]: 22.9 µM
IC50 [3, 22]: 3.19 µM
IC50 [4, 23]: 8.27 µM
IC50 ([5]; Cell Titer-Glo, read-out: IC50): 9.7 ± 0.37 µM
IC50 [6, 24]: 16 µM
fold increase in potency versus fully-saturated 18 ([7]; average IC50 compared): > 3 fold
IC50 [7, 25]: 9.47 µM
IC50 ([8]; Cell Titer-Glo, read-out: IC50): 11.5 ± 0.77 µM
IC50 [9, 26]: 7.18 µM
IC50 ([10]; Calcein AM, read-out: IC50): 22.5 µM
IC50 [11, 27]: < 12.5 µM
IC50 [12, 28]: 15.4 µM
IC50 [13, 29]: 8.86 µM
IC50 [14, 30]: 4.64 µM
IC50 [15, 31]: 10.6 µM
IC50 [16, 32]: 5.37 µM
IC50 [17, 33]: 31.4 µM
IC50 [18, 34]: 11.5 µM
IC50 [19, 35]: 14.5 µM
IC50 [20, 36]: 11.5 µM

CCCCc1ccc(N=C=S)cc1 [Compound 21, 1-butyl-4-isothiocyanatobenzene]
IC50 ([1]; Calcein AM, read-out: IC50): > 50 µM
IC50 [2, 21]: > 50 µM
IC50 [3, 22]: 19.4 µM
IC50 [4, 23]: 32.1 µM
IC50 ([5]; Cell Titer-Glo, read-out: IC50): > 50 µM
IC50 [6, 24]: 45.8 µM
Cancerous Average IC50 / Average IC50 in Cancer Cell Lines [7, 25]: 35.25^f μM
IC50 [7, 25]: 35.2 µM
IC50 ([8]; Cell Titer-Glo, read-out: IC50): > 50 µM
IC50 [9, 26]: 15.9 µM
IC50 ([10]; Calcein AM, read-out: IC50): > 50 µM
IC50 [11, 27]: 71.9 µM
IC50 [12, 28]: 65.7 µM
IC50 [13, 29]: 31.4 µM
IC50 [14, 30]: 48 µM
IC50 [15, 31]: 45.4 µM
IC50 [16, 32]: > 50 µM
IC50 [17, 33]: > 50 µM
IC50 [18, 34]: > 50 µM
IC50 [19, 35]: > 50 µM
IC50 ([19]; NCI-H460, Cell Titer-Glo, 72 h): ^fNon-inhibitory in Hep3B, NCI/ADR RES, NCI-H460
IC50 [20, 36]: 21.5 µM

C[S+]([O-])CCCCN=C=S (racemic) [Compound 13, 1-isothiocyanato-4-(methylsulfinyl)butane]
IC50 ([1]; Calcein AM, read-out: IC50): 13.1 µM
IC50 [2, 21]: 13 µM
IC50 [3, 22]: 4.81 µM
IC50 [4, 23]: 6.22 µM
IC50 ([5]; Cell Titer-Glo, read-out: IC50): 2.75 µM
IC50 [6, 24]: 7.28 µM
IC50 [7, 25]: 7.61 µM
IC50 ([8]; Cell Titer-Glo, read-out: IC50): 16.5 µM
IC50 [9, 26]: 5.65 µM
IC50 [10]: < 3.13 µM
IC50 [11, 27]: 5.61 µM
IC50 [12, 28]: 3.2 µM
IC50 [13, 29]: 9.9 µM
IC50 [14, 30]: 8.62 µM
IC50 [15, 31]: 8.59 µM
IC50 [16, 32]: 6.25 µM
IC50 [17, 33]: 46.4 µM
IC50 [18, 34]: 6.13 µM
IC50 [19, 35]: 10.1 µM
IC50 [20, 36]: 5.69 µM

S=C=NCc1ccc(Br)cc1 [Compound 26, 1-bromo-4-(isothiocyanatomethyl)benzene]
IC50 ([1]; Calcein AM, read-out: IC50): > 20 µM
IC50 [2, 21]: 16 µM
IC50 [3, 22]: 9.8 µM
IC50 [4, 23]: 6.96 µM
IC50 ([5]; Cell Titer-Glo, read-out: IC50): 6.8 µM
IC50 [6, 24]: 7.08 µM
IC50 [7, 25]: 10.7 µM
IC50 ([8]; Cell Titer-Glo, read-out: IC50): 22.3 µM
IC50 [9, 26]: 3.94 µM
IC50 ([10]; Calcein AM, read-out: IC50): 7.16 µM
IC50 [11, 27]: 18.3 µM
IC50 [12, 28]: 9.77 µM
IC50 [13, 29]: 7.17 µM
IC50 [14, 30]: 10.1 µM
IC50 [15, 31]: 5.92 µM
IC50 [16, 32]: 7.67 µM
IC50 [17, 33]: 47.4 µM
IC50 [18, 34]: 5.16 µM
IC50 [19, 35]: > 20 µM
IC50 [20, 36]: 10.9 µM

S=C=NCc1cccnc1 [Compound 22, 3-(isothiocyanatomethyl)pyridine]
IC50 [1]: 2.27 µM
IC50 ([2]; NCI-H460, 72 h): 5.18 µM
IC50 ([3]; HCT-116, 72 h): 2.04 ± 0.21 µM
IC50 ([4]; SF-268, 72 h): 2.46 µM
IC50 [5]: 3 µM
IC50 ([6]; MCF7, 72 h): 2.31 µM
IC50 ([7]; Homo sapiens): 2.54 µM
fold increase in effectiveness relative to L-sulforaphane ([7]; potency in NCI/ADR RES and selectivity over NmuMG taken together): ~30 fold
IC50 [8]: 1.18 ± 0.06 µM
fold more potent than L-sulforaphane ([8]; NCI/ADR RES cells): ~7.5 fold
fold increase in potency versus 23 ([8]; NCI/ADR RES cells, phenyl replaced by 3-pyridine): ≤ 10 fold
IC50 ([9]; SK-OV-3, 72 h): 2.6 µM
IC50 [10]: 3.64 µM
IC50 [11]: < 12.5 µM
IC50 [12]: 26 ± 1.15 µM
fold less potent than L-sulforaphane ([12]; NmuMG cells): ~4 fold
IC50 ([13]; SK-OV-3, 72 h): 2.21 µM
IC50 ([14]; DU-145, 72 h): 2.91 µM
IC50 ([15]; MCF7, 72 h): 2.04 µM
IC50 ([16]; DU-145, 72 h): < 1.88 µM
IC50 ([17]; HT-29, 24 h): 21.3 µM
IC50 ([18]; HCT-116, 72 h): 1.26 µM
IC50 ([19]; Homo sapiens, NCI-H460, 72 h): 4.51 µM
IC50 ([20]; SF-268, 72 h): 2.68 µM
